The source of these data is paper PMC10492782, “Exploiting the aggregation propensity of beta-lactamases to design inhibitors that induce enzyme misfolding” (Nature Communications, 2023).

Data set [1] deals with T1, TEM-1 (Escherichia coli, UniProt P62593). Type of data set: biochemical, E. coli. Set-up: His-tag (N); TEV cleavage site (N); made in house; host or cells: E. coli BL21 (DE3).
Text: Then, we performed a thermal denaturation whilst simultaneously monitoring the intrinsic fluorescence as a measure of the folding status of the molecule (Fig. 1D and Supplementary Fig. 2D) and the static light scattering as a measure of aggregation (Fig. 1E and Supplementary Fig. 2E).
D Heat denaturation of TEM-1 monitored by intrinsic fluorescence plotted as the BaryCentric Mean (BCM) of the fluorescence emission spectrum in the presence (red) and absence (blue) of tazobactam. […] E Temperature-dependent evolution of the Right-Angle Light Scattering (RALS) intensity measured simultaneously with the data in D to monitor protein aggregation. […] F Same data as in E, but showing a dose-titration of the beta-lactamase inhibitor tazobactam.
Another data set relates to E. coli strain UZ_TEM104. As to the kind of experiment: microbe, parasite or virus in culture. Format: cell-based, Escherichia coli.
The target of another data set is T2, SHV-11 (Klebsiella pneumoniae, UniProt P0AD64, L31Q).
T2 construct: His-tag (N); TEV cleavage site (N); made in house; host or cells: E. coli BL21 (DE3)
Briefly: Thermal denaturation, Right-Angle Light Scattering (aggregation). Type of data set: biochemical. Particulars: excess of tazobactam; less marked than for TEM-1.

Data set [2] deals with uro-pathogenic E. coli strain (UPEC strain blaTEM-1). As to the kind of experiment: MIC of ampicillin with or without 32 µg/mL TEM3.2 or tazobactam. Format: cell-based, Escherichia coli. The procedure: (§1) We also performed a tolerability study using a dose escalation method by administering the peptide at 2, 5, 10, 15, and 20 mg/kg via different parenteral routes: intravenous (IV), intraperitoneal (IP), and subcutaneous (SC) in female C57BL/6JAX mice, aged 8–10 weeks (Suppl Table 4). […] Vehicle alone (0.9% NaCl) was also administered (IV). After 24 h the animals were sacrificed and the bacterial load in the bladder, kidney, and ureter was quantified by determining the number of colony-forming units (CFU) per mL of tissue extract (Fig. 7E–G).
Determination of MIC values was performed using the broth microdilution method according to the EUCAST guideline, which was performed in 96-well polystyrene flat-bottom microtiter plates (BD Biosciences). Briefly, a single colony was inoculated into 5 mL Difco™ Mueller–Hinton Broth (BD Biosciences Ref 275730) and grown to the end-exponential growth phase in a shaking incubator at 37 °C. Cultures were subsequently diluted to a MacFarland (0.5 optical density) to reach 10^6 CFU/mL in fresh MHB medium. 50 µl of different concentrations of peptides ranging from 128 to 2 µg/mL were serially diluted to the sterile 96-well plate in MHB. 50 µL of the diluted bacteria in MHB were next pipetted into 96-well plates to reach the final volume of 100 µL. The bacteria grown with the maximum concentration of carrier and medium were considered positive and negative controls, respectively. The plates were statically incubated overnight at 37 °C to allow bacterial growth. OD was measured at 590 nm using a multipurpose ultraviolet–visible plate reader, and the absorbance of the bacterial growth was measured using an absorbance reader.

Data set [3] addresses T1, TEM-1. Type of data set: biochemical.
Text: To satisfy the reviewer’s comment, we have performed urea denaturation in the presence
of a molar excess of tazobactam and compared it to the condition without.
two-state denaturation of the protein with a stable intermediate. The difference between
The plots show a single repeat.
Table 1: Results from fitting 3 replicates
G1 (kcal/mol) G2 (kcal/mol) Sum
Data set [4] concerns uro-pathogenic E. coli strain (UPEC strain blaTEM-1). Briefly: Urinary tract infection model, bacterial load in bladder, kidney, ureter. Format: in vivo, female C57BL/6JAX mice. Further details: bacterial load, Ureters / bacterial load, Bladder / bacterial load, Kindey: unit: CFU per mL of tissue extract. As to the method: Fig. 7 Evaluation of in vivo use of peptides that induce the aggregation of TEM beta-lactamase. A Lysis of human erythrocytes (hemolysis) was assessed in the presence of the indicated concentrations of TEM3.2 for 2 h at 37 °C, and normalized to the value obtained with 1% of the detergent triton. […] B Cell viability using the CellTiter Blue assay of HeLa cells treated for 24 h with the indicated concentrations TEM 3.2 at 37 °C. […] DAPI (4’,6-diamidino-2-phenylindole) is blue, while CellMask is red. D Experimental workflow of the in vivo model used in this study. E–G Bacterial load of indicated organs of female C57BL/6JAX mice with a urinary tract infection with E. coli strain UZ_TEM104, treated with 30 mg/kg penicillin (oral) as well 10 mg/kg tazobactam (oral) or 10 mg/kg TEM3.2 via the indicated treatment route. IV intravenous, IP intraperitoneal, SC subcutaneously. The data shown is from a single experiment with 12 animals for each group. The result for each animal is shown as a dot. […] The statistically significant differences were determined using ANOVA, followed by Dunnett’s multiple comparison test. […] Source data are provided as a Source Data file.
as §1
To test the efficacy of the peptides, a urinary tract infection model was performed as described previously. Briefly, female C57BL/6Jax mice female mice were deprived of water for at least 1 h. Then, they were anesthetized by IP administration of the mixture of ketamine (Nimatek)/xylazine (XYL-M 2% BE-V170581). The bladder of the mouse was massaged with fingers and pushed down gently to expel the remaining urine. Mice were slowly inoculated urethrally with 50 µL of a bacterial suspension slowly over 5 s to avoid vesicoureteral reflux (10^8 CFU/ mouse) using a sterile catheter (pediatric intravenous-access cannula (GS391350)). The catheter was removed directly after inoculation. After surgery, the animals were visually monitored for full recovery. After 1 h post inoculation, all mice received Ampicillin (30 mg/kg_PO-orally) and at the same time 3 groups of animals received the peptides via different administration routes (10 mg/kg_IV—intravenous; IP—intraperitoneal or SC—sub-cutaneous) and the positive control groups received tazobactam (10 mg/kg, PO). The negative control groups received vehicle or saline (IV administration). 2 h post inoculation, all mice received a second injection with the same concentration of each treatment as explained above. Twenty-four hours post-infection, mice were sacrificed and organs (kidney, bladder, ureter) were washed with PBS and were homogenized (Thermo Savant FastPrep FP120 Homogenizer/24 s). The homogenized tissues were serially diluted and cultured on blood agar plates. The plates were incubated overnight at 37 °C, and the number of bacteria was measured by CFU value.

The subject of a further data set is E. coli TEM-30. Format: cell-based, Escherichia coli. The procedure: (§2) Beta-lactamase clinical samples were collected from University Hospitals Leuven and tested for ESBL production using the disk diffusion method. The beta-lactamase reference isolates were purchased from International Health Management Associates (IHMA). Bacterial strains were cultivated in Mueller–Hinton Broth (MHB, Difco) at 37 °C. Whenever required, growth media were supplemented with appropriate antibiotics to the medium or plates (kanamycin 30 µg/mL, L-arabinose 0.5 mg/mL, and IPTG […]). Escherichia coli BL21 (ThermoFisher Scientific, Belgium) was used for cloning and plasmid amplification. For the selection of antibiotic resistant colonies, E. coli carrying plasmids was grown in LB agar plates supplemented with the relevant antibiotic. Bacterial CFU counting was done on blood agar plates (BD Biosciences, Belgium) or MHA agar plates. Species identification and antibiograms for all clinical isolates were performed using MALDI-Tof and VITEK® 2 automated system (BioMérieux, France).
(§3) Khodaparast et al Supplementary data
(§4) study. […] Abbreviations: S,
(§5) susceptible; I, intermediate; R, resistant.

The subject of a further data set is VIM-1. To be noted: ampicillin as substrate; cited from earlier work. From the text:
(§6) Abbreviations: S, susceptible; I, intermediate; R, resistant.

The subject of the next data set is OXA-48. To be noted: ampicillin as substrate; cited from earlier work.
Text: as §6

A further data set concerns E. coli SHV1 (APHA). As to the kind of experiment: VITEK 2 AST antimicrobial susceptibility testing. Type of data set: cell-based, Escherichia coli. As to the method:
as §2, §3, §4, §5

In another data set the test system is E. coli NDM5b. Briefly: VITEK 2 AST antimicrobial susceptibility testing. Format: cell-based, Escherichia coli. As to the method:
as §2, §3, §4, §5

A further data set has as its system E. coli TEM-148. As to the kind of experiment: VITEK 2 AST antimicrobial susceptibility testing. Type of data set: cell-based, Escherichia coli. The procedure: as §2, §3, §4, §5
A further data set deals with E. coli TEM-16. Briefly: VITEK 2 AST antimicrobial susceptibility testing. Type of data set: cell-based, Escherichia coli. As to the method: as §2, §3, §4, §5
Another data set relates to E. coli NDM5a. Briefly: VITEK 2 AST antimicrobial susceptibility testing. Type of data set: cell-based, Escherichia coli. As to the method: as §2, §3, §4, §5
The subject of another data set is E. coli TEM-206. Briefly: VITEK 2 AST antimicrobial susceptibility testing. Type of data set: cell-based, Escherichia coli. To be noted: E. coli TEM-206. As to the method: as §2, §3, §4, §5
The test system of a further data set is E. coli TEM-104. Briefly: VITEK 2 AST antimicrobial susceptibility testing. Type of data set: cell-based, Escherichia coli. The procedure: as §2, §3, §4, §5
The subject of data set [5] is TEM-1. Particulars: ampicillin as substrate; cited from earlier work.
The next data set has as its system NDM-5. Particulars: ampicillin as substrate; cited from earlier work.
Data set [6] concerns the molecule itself. Briefly: Thioflavin-T and pFTAA fluorescence kinetics + DLS + transmission electron microscopy; 50 μM TEM3.2 with polyphosphate (PolyP); electron microscopy after 24 h incubation at RT; the peptide is called soluble in buffer alone.
Setting [7] is: group Tazo, each column one mouse.

“And” between values parts separate entries of the source, which are not always exact repeats. Identical values can stand only once. Counter-ions that a name gives are not always drawn.

T1 sequence (P62593 24-286 limits assumed): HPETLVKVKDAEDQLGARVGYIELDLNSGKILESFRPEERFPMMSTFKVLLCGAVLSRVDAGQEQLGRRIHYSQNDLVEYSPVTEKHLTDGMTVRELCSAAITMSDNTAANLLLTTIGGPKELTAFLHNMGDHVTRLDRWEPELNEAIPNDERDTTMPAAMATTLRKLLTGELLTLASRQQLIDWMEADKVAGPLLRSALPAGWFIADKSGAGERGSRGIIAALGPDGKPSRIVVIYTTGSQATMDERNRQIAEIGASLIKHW
T2 sequence (P0AD64 22-286 L31Q): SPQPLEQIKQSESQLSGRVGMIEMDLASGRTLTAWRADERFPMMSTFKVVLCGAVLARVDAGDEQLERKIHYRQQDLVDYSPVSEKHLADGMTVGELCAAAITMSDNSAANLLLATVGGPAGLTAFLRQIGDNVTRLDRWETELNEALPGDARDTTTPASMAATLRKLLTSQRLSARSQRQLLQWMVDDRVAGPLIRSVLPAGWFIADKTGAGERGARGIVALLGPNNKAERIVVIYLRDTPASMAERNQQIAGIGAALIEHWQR

As to `C[C@]1(Cn2ccnn2)[C@H](C(=O)O)N2C(=O)C[C@H]2S1(=O)=O` [Tazobactam, tazobactam sodium salt], at TEM-1 [1] (excess of tazobactam, more marked for TEM-1 than SHV-11), the “effect on aggregation of TEM-1 during thermal denaturation (in words)” value is “a decrease in the aggregation of the protein”. Further, the “effect on aggregation of TEM-1, dose-response (in words)” value on TEM-1 [1] (static light scattering during temperature ramp, inhibitor titration) was “reduce the aggregation of the enzyme in a dose-responsive manner”. Also, the MIC penicillin in the data set with E. coli strain UZ_TEM104 (E. coli UZ_TEM104, concentration of additive 50 (mg/mL [sic])) turned out to be 400000 µg/mL. For the same molecule, the “fold reduction of the MIC of penicillin G” value with E. coli strain UZ_TEM104 (additive at 50 μg/mL) worked out at 4 fold. Also, in the data set on E. coli strain UZ_TEM104 (in the presence of additive (peptide or tazobactam) at fixed 50 μg/mL), the MIC penicillin stood at 400 µg/mL. For the same molecule, the “effect on aggregation of SHV-11 during thermal denaturation (in words)” value at SHV-11 is on record as “a decrease in the aggregation of the protein”. For the same molecule, in data set [2] (32 μg/mL of either TEM3.2 or tazobactam), the “MIC Ampicillin in the presence of additive” value is 25 µg/mL. The Sum at TEM-1 [3] (G1 + G2, with molar excess of tazobactam (no tazo 10.40)) amounted to 10.28 kcal/mol. In addition, the G2 at TEM-1 [3] (urea denaturation of TEM-1 with molar excess of tazobactam, 3-state fit, 3 replicates (no tazo 5.00)) worked out at 4.03 kcal/mol. For the same molecule, the G1 at TEM-1 [3] (urea denaturation of TEM-1 with molar excess of tazobactam, 3-state fit, 3 replicates (no tazo 5.40)) is on record as 6.25 kcal/mol. The “best reduction of the bacterial load” value in data set [4] (10 mg/kg plus 30 mg/kg Ampicillin orally at 60 and 120 min post-infection, CFU at 24 h, most robust in kidney and ureter) is 1.8 log folds. In data set [4] (setting [7]), the “bacterial load, Bladder” value was 26566.7 and 152667 and 97400 and 1 and 3700 and 1433.33 and 3000 and 1800 and 1966.67 and 316733 and 4266.67 and 3266.67; the “bacterial load, Kindey” value was 24000 and 134000 and 72733.3 and 633.333 and 1 (3×) and 10200 and 2066.67 and 17700 and 9833.33 and 4600; the “bacterial load, Ureters” value was 2433.33 and 54400 and 33133.3 and 133.333 and 166.667 and 1 (2×) and 1000 and 800 and 11633.3 and 1900 and 1166.67.

Take `CC1(C)S[C@@H]2[C@H](NC(=O)[C@H](N)c3ccccc3)C(=O)N2[C@H]1C(=O)O` [Ampicillin]: the Interoretation result with E. coli TEM-30 (E. coli TEM-30), in the data set on E. coli SHV1 (APHA) (E. coli SHV154), in the data set on E. coli NDM5b (E. coli NDM5b), in the data set with E. coli TEM-148 (E. coli TEM-148), in the data set with E. coli TEM-16 (E. coli TEM-16) and in the data set on E. coli NDM5a (E. coli NDM5a) was “R” throughout. In addition, the Interoretation entry in the data set with E. coli TEM-206 and in the data set on E. coli TEM-104 (E. coli TEM-104) was “R” each time. For the same molecule, the Interpretation result with E. coli TEM-30 (VITEK 2 AST card), in the data set with E. coli SHV1 (APHA) (VITEK 2 AST card), in the data set with E. coli NDM5b (VITEK 2 AST card), with E. coli TEM-148 (VITEK 2 AST card), with E. coli TEM-16 (VITEK 2 AST card) and in the data set with E. coli NDM5a (VITEK 2 AST card) was “R” in each case. The Interpretation entry with E. coli TEM-104 (VITEK 2 AST card) was “R”. Besides, the Kcat is 37 s⁻¹ with VIM-1, 955 s⁻¹ in the data set on OXA-48, 1428 s⁻¹ in the data set on TEM-1 [5] and 1912 s⁻¹ in the data set with NDM-5. Also, the Km with VIM-1 was 917 µM; with OXA-48 it was 395 µM; in the data set with TEM-1 [5], 50 µM; in the data set on NDM-5, 118 µM. Besides, the MIC in data set [2] (Escherichia coli, no additive) came to 1200 µg/mL.

B1: Pept-In TEM3.2 (peptide)
peptide: Ac-RLTAFLHNRRPRLTAFLRQRR-NH2
notes: designed tandem of the TEM version (LTAFLHN) and the SHV version (LTAFLRQ) of APR 3, each flanked by Arg, with a Pro linker; also called peptide TEM3.2; source: synthetic peptide (Genscript, >90% purity; also in-house solid-phase synthesis)
Consider B1, for which, in data set [6], the binding result is given as “binds”.
